Values of other authors in patent US20110245279A1, “PREDICTIVE MARKER FOR EGFR INHIBITOR TREATMENT” (priority 2007, published 2011).
Where two headings read alike, the source gives them in different places.

Legend:
[1] = patients with cancer receiving the 150 mg/day dose
NSCLC [2] = settings: single agent; NSCLC patients for whom standard therapy for advanced disease has failed
NSCLC [3] = tested on: NSCLC
[4] = randomized phase III trial, second line therapy of NSCLC

## C#Cc1cccc(Nc2ncnc3cc(OCCOC)c(OCCOC)cc23)c1 [Tarceva, erlotinib]
[1]
  drug levels in plasma: > 500 ng/mL
NSCLC [2]
  survival: significantly prolongs and improves the survival

## CC(=O)O[C@@]12CO[C@@H]1C[C@H](O)[C@@]1(C)C(=O)[C@H](O)C3=C(C)[C@@H](OC(=O)[C@H](O)[C@@H](NC(=O)OC(C)(C)C)c4ccccc4)C[C@@](O)([C@@H](OC(=O)c4ccccc4)[C@H]21)C3(C)C [docetaxel]
NSCLC [3]; second line vs best supportive care, after cisplatin-based first-line regimens had failed
  survival: improved survival

## Nc1nc2[nH]cc(CCc3ccc(C(=O)N[C@@H](CCC(=O)O)C(=O)O)cc3)c2c(=O)[nH]1 [pemetrexed]
NSCLC [3]; [4]
  efficacy compared with docetaxel: clinically equivalent efficacy
  side effects compared with docetaxel: significantly fewer side effects

## CCOC(=O)c1ccc(C#Cc2ccc3c(c2)C(C)(C)CCS3)nc1 [tazarotene]
RARRES1 gene
  expression of RARRES1 gene: up regulated
